Experimental data: ChEMBL document CHEMBL1201862, “PubChem BioAssay data set” (2004)
Activity calls are given as the source filed them.

Experiments:
[1] = target: T1, Probable nicotinate-nucleotide adenylyltransferase (Staphylococcus aureus (strain N315), UniProt P65502); type: functional, Staphylococcus aureus subsp. aureus N315;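 on IC50 Mean: confirmatory dose-response retesting of NadD inhibitor hits first found in an ultra-high-throughput screen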
[2] = target: T1, Probable nicotinate-nucleotide adenylyltransferase; type: functional, Staphylococcus aureus subsp. aureus N315; settings: read-out: IC50_Mean
[3] = system: HEK293; assay: cells; type: functional, cell-based; settings: Homo sapiens
[4] = target: T2, Low molecular weight phosphotyrosine protein phosphatase (Homo sapiens, UniProt P24666); type: functional; settings: read-out: IC50_Mean
T2 sequence (P24666 whole entry): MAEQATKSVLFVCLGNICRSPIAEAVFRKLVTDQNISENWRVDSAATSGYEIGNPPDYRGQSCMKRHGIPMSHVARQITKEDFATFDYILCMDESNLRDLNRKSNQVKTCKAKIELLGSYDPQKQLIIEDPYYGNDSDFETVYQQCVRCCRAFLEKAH

[5] = target: Caspase-8 (Homo sapiens, UniProt Q14790); assay: inhibitors of purified CASP8 protease – biochemical, Z-IETD-R110 fluorescence, cherry-picked samples, selectivity assay for caspase-6 inhibitor project, dose response (AID 743294)
Caspase-8, sequence (Q14790 217-374 limits assumed): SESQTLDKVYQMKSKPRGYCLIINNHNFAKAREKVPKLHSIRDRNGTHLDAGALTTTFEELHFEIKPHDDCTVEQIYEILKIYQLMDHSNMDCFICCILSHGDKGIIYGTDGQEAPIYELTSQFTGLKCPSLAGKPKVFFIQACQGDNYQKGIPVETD
Caspase-8, sequence (Q14790 385-479 limits assumed): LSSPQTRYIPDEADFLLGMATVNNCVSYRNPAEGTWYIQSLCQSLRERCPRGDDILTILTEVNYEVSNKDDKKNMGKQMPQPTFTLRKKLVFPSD

[6] = target: T3, Small ubiquitin-related modifier 1 (Homo sapiens, UniProt P63165); assay: SUMO1 protein interaction blockers, potency – biochemical, fluorescence polarization, uHTS hits, dose response (AID 624382); type: functional; settings: read-out: IC50_Mean
T3 sequence (P63165 whole entry): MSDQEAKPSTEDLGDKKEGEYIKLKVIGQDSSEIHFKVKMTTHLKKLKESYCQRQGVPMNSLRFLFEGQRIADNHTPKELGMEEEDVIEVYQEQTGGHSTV

[7] = system: HEK293; assay: inhibition of NOD1-driven NF-kB reporter – cell-based, luminescence, uHTS, primary screen (AID 1578); type: functional; settings: Homo sapiens
[8] = target: T4, Carboxy-terminal domain RNA polymerase II polypeptide A small phosphatase 1 (Homo sapiens, UniProt Q9GZU7); assay: CTDSP1 inhibitors, concentration-response, biochemical, absorbance readout, ultra-high-throughput screen actives (AID 540297); type: functional
T4 sequence (Q9GZU7 whole entry): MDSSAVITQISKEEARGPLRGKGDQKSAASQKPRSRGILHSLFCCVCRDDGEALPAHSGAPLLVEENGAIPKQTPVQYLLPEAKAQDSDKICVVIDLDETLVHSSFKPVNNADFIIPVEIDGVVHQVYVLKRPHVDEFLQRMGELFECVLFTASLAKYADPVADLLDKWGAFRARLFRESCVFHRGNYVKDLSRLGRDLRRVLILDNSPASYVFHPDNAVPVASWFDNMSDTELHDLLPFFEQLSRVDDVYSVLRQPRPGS

[9] = target: T2, Low molecular weight phosphotyrosine protein phosphatase; type: functional; settings: read-out: IC50_Mean; remark: listed apart in the source
[10] = target: T3, Small ubiquitin-related modifier 1; assay: SUMO1 protein-protein binding blockers, potency – biochemical, FRET, dose response (AID 624383); type: functional; settings: read-out: IC50_Mean
[11] = target: T5, Tyrosine-protein phosphatase non-receptor type 11 (Homo sapiens, UniProt Q06124); assay: PTPN11 enzyme inhibitors – biochemical, selectivity assay for STEP inhibitor project, dose response (AID 602367); type: functional; settings: read-out: IC50_Mean
T5 sequence (Q06124 whole entry): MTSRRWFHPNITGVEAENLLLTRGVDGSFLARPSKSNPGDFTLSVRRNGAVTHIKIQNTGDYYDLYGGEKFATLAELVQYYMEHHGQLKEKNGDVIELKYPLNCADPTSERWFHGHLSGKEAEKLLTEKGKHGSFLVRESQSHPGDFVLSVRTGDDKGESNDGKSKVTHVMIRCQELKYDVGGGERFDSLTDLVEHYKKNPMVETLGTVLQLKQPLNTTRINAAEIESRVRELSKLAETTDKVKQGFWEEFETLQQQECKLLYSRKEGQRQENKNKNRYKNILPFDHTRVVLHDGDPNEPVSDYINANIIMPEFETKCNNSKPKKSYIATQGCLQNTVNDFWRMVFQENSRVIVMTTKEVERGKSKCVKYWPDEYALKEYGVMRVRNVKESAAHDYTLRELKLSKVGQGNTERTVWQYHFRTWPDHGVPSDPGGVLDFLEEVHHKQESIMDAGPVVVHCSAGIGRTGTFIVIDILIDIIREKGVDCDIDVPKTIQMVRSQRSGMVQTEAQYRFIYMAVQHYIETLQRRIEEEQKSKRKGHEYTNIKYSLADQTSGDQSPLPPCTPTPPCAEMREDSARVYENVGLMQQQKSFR

[12] = target: Nucleotide-binding oligomerization domain-containing protein 2 (Homo sapiens, UniProt Q9HC29); assay: inhibition of NOD2-driven NF-kB reporter – cell-based, luminescence, uHTS, HEK293 (AID 1566); type: functional
Nucleotide-binding oligomerization domain-containing protein 2, sequence (Q9HC29 whole entry, the tested form may be a part): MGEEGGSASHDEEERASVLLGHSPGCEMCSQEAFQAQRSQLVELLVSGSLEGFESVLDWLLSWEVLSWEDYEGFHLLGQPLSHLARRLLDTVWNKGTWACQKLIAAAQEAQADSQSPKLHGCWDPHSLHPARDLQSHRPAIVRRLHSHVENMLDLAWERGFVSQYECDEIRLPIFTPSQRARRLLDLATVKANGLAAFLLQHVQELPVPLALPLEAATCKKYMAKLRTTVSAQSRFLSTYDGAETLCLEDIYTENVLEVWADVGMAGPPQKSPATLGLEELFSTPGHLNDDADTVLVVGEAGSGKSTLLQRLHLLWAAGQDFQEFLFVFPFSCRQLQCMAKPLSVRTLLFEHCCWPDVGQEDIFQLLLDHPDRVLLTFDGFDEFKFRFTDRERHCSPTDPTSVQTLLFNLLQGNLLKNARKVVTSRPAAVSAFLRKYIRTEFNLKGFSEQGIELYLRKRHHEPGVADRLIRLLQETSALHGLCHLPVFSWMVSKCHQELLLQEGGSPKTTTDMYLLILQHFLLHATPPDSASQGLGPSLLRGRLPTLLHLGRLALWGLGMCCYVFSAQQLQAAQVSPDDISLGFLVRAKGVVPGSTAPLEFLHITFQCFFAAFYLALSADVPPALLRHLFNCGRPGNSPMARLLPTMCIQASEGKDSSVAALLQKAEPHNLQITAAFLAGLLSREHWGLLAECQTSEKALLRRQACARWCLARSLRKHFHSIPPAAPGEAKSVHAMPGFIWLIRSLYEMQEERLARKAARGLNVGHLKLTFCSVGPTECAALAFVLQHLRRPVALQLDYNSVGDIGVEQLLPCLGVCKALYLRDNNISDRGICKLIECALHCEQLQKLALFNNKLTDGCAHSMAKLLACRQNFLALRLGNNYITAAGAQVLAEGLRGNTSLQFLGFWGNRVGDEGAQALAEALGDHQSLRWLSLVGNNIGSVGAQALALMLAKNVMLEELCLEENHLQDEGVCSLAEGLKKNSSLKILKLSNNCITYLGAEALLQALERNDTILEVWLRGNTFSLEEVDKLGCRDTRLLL

[13] = system: HEK293; assay: cells; type: functional, cell-based; settings: Homo sapiens; remark: listed apart in the source
[14] = system: HEK293; assay: NOD2 signaling inhibitors in MDP-stimulated cells, cell-based, uHTS, luminescence (AID 2001); type: functional; settings: Homo sapiens
[15] = target: T6, Tyrosine-protein phosphatase non-receptor type 5 (Homo sapiens, UniProt P54829); assay: PTPN5 enzyme inhibition – biochemical, fluorescence intensity, uHTS hits, confirmation (AID 602372); type: functional; settings: read-out: IC50_Mean
T6 sequence (P54829 whole entry): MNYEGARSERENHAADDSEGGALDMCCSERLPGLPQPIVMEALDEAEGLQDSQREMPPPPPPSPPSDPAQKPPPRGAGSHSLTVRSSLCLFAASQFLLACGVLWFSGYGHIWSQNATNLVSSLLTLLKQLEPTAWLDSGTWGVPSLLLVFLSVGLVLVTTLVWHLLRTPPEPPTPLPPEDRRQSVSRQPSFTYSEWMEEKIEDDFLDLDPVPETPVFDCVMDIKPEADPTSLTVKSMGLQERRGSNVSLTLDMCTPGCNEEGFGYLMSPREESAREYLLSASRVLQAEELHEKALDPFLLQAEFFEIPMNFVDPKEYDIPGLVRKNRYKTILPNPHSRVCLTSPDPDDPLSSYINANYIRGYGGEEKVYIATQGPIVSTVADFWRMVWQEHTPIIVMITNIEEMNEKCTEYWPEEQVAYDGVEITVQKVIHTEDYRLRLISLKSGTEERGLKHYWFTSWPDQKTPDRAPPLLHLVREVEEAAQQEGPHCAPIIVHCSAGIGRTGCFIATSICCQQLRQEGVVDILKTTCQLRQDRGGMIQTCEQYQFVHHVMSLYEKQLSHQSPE

[16] = target: Dual specificity protein phosphatase 3 (Homo sapiens, UniProt P51452); assay: VHR phosphatase inhibition, dose response, selectivity assay for STEP inhibitor project, biochemical (AID 602374); type: functional; settings: read-out: IC50_Mean
Dual specificity protein phosphatase 3, sequence (P51452 whole entry): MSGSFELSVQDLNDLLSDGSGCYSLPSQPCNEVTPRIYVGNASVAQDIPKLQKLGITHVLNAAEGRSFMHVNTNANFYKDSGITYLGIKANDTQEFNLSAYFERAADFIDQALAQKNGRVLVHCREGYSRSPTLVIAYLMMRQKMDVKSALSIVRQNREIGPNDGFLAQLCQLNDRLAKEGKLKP

[17] = target: T7, Caspase-6 (Homo sapiens, UniProt P55212); assay: inhibition of CASP6 peptide cleavage – biochemical, VEID-R110 fluorescence, cherry-pick, dose response (AID 720632)
T7 sequence (P55212 whole entry): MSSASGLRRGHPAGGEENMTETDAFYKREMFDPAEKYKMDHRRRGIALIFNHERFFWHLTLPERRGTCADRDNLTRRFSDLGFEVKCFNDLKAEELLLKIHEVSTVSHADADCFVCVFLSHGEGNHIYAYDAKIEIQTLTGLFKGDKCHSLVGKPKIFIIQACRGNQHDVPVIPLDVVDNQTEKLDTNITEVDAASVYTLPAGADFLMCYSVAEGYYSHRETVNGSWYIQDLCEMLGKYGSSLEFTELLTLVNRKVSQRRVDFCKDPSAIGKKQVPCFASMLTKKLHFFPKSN

T1 sequence (P65502 whole entry): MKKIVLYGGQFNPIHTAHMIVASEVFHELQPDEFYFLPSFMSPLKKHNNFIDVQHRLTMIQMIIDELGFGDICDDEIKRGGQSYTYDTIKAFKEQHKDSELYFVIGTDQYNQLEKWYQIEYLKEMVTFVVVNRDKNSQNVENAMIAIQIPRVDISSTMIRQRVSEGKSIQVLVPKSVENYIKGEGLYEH

| SMILES | IC50 [1] | IC50 [2] | IC50 [3] | IC50 [4] | AC50 [5] | IC50 [6] | EC50 [7] | IC50 [8] | IC50 [9] | IC50 [10] | IC50 [11] | EC50 [12] | IC50 [13] | IC50 [14] | IC50 [15] | IC50 [16] | AC50 [17] |
| --- | --- | --- | --- | --- | --- | --- | --- | --- | --- | --- | --- | --- | --- | --- | --- | --- | --- |
| Cc1ccc(-c2cc(C(=O)Nc3ccc(S(=O)(=O)Nc4onc(C)c4C)cc3)c3ccccc3n2)cc1 | 5.56 µM (active) | 20.1 µM (active) | – | – | – | – | – | – | – | – | – | – | – | – | – | – | – |
| Cc1c(CCC(=O)O)c(=O)oc2c(C)c(OCc3ccccc3Cl)ccc12 | – | – | > 20 µM (inactive) | 6.36 µM (active) | > 70 µM (inactive) | > 66.6 µM (inactive) | > 20 µM (inactive) | 1.99 µM (active) | 4.25 µM (active) | 9.18 µM (active) | 1.55 µM (active) | 2.94 µM (active) | 9.68 µM (active) | > 20 µM (inactive) | 2.94 µM (active) | 1.56 µM (active) | 1.38 µM (active) |
